Residues, ends and D or L forms follow the SMILES beside them. *: point of attachment. Cbz = O=C(OCc1ccccc1)*
Columns and labels:
[1] = tested on: macrophage MT-1 induced from iPS cells (mutant NLRP3 gene); experiment: amount of IL-8 secretion from LPS-stimulated macrophage MT-1 (Human Th1/Th2 11plex Kit); details: 100 ng/ml IL-1Ra, 12 μM Bay11-7028 or 10 μM Parthenolide; two hours, then drug and LPS (1 μg/ml) four hours; FIG. 5B
[2] = tested on: macrophage MT-1 induced from iPS cells (mutant NLRP3 gene); experiment: amount of IL-6 secretion from LPS-stimulated macrophage MT-1 (Human Th1/Th2 11plex Kit); details: 100 ng/ml IL-1Ra, 12 μM Bay11-7028 or 10 μM Parthenolide; two hours, then drug and LPS (1 μg/ml) four hours; FIG. 5C
[3] = tested on: macrophage MT-1 induced from iPS cells (mutant NLRP3 gene); details: for amount of secretion of IL-1β: 100 ng/ml IL-1Ra, 12 μM Bay11-7028, 50 μM CA074Me or 10 μM Parthenolide, two hours, then drug and LPS (1 μg/ml) four hours, FIG. 5A; for amount of IL-1β secretion: each concentration of drug, cultured two hours, then drug and LPS (1 μg/ml) another four hours, FIG. 4

| Compound | amount of secretion of IL-8 [1] | amount of secretion of IL-6 [2] | amount of secretion of IL-1β [3] | amount of IL-1β secretion [3] |
| --- | --- | --- | --- | --- |
| Cc1ccc(S(=O)(=O)/C=C/C#N)cc1 [Bay11-7028] | inhibited | inhibited | inhibited |  |
| CCCNC(=O)[C@H]1O[C@@H]1C(=O)N[C@H](C(=O)N1CCC[C@H]1C(=O)OC)[C@@H](C)CC [CA074Me] |  |  | specifically inhibited |  |
| C[C@@H]1C[C@@H]([C@H](O)CC2CC(=O)NC(=O)C2)C(=O)[C@@H](C)C1 [CHX, cycloheximide] |  |  |  | inhibited IL-1β secretion in a dose dependent manner |
| CC(C)C[C@@H](C=O)NC(=O)[C@H](CC(C)C)NC(=O)[C@H](CC(C)C)NC(=O)OCc1ccccc1 [MG132] (Cbz-Leu-Leu-Leu-aldehyde) |  |  |  | inhibited IL-1β secretion in a dose dependent manner |
| IL-1Ra: interleukin 1 receptor antagonist (R&D Systems) | did not change | did not change | did not change |  |

— patent publication US9557321B2, “Method for screening drugs for suppressing inflammasome activity” (KYOTO UNIVERSITY, priority 2010, dated 2017)
